# Measured values published in patent US4296032A (priority 1979, dated 1981).
# Columns and labels:
# Assay type in all cases: cell-based
# Staph. aureus Russell = test: MIC of ampicillin in the presence of the inhibitor, Staph. aureus Russell
# Procedure: (§1) The MIC of ampicillin was determined in the presence of the pivaloyloxymethyl ester of 6-β-bromopenicillanic acid (inhibitor).
# Proteus sp. C889 = test: MIC of ampicillin in the presence of the inhibitor, Proteus sp. C889
# Procedure: as §1
# E. coli JT. 39 = test: MIC of ampicillin in the presence of the inhibitor, E. coli JT. 39
# Procedure: as §1
# Klebsiella aerogenes E70 = test: MIC of ampicillin in the presence of the inhibitor, Klebsiella aerogenes E70
# Procedure: as §1
smiles,measurement,setting,value
CC(C)(C)C(=O)OCOC(=O)[C@@H]1N2C(=O)[C@@H](Br)[C@H]2SC1(C)C [pivaloyloxymethyl 6β-bromopenicillanate],MIC of Ampicillin,Staph. aureus Russell; inhibitor conc. 5 μg/ml,3.1 µg/mL
same,MIC of Ampicillin,Staph. aureus Russell; inhibitor conc. 20 μg/ml,0.78 µg/mL
same,MIC of Ampicillin,Proteus sp. C889; inhibitor conc. 5 μg/ml,31 µg/mL
same,MIC of Ampicillin,Proteus sp. C889; inhibitor conc. 20 μg/ml,8 µg/mL
same,MIC of Ampicillin,E. coli JT. 39; inhibitor conc. 5 μg/ml,4 µg/mL
same,MIC of Ampicillin,E. coli JT. 39; inhibitor conc. 20 μg/ml,2 µg/mL
same,MIC of Ampicillin,Klebsiella aerogenes E70; inhibitor conc. 5 μg/ml,12.5 µg/mL
same,MIC of Ampicillin,Klebsiella aerogenes E70; inhibitor conc. 20 μg/ml,6.2 µg/mL
